In ChEMBL document CHEMBL4196033, “Potent hydrazone derivatives targeting esophageal cancer cells” (Eur J Med Chem, 2018):
The source made the active and inactive calls. The calls are words filed in the database; no cut-off is given here.

Legend:
[1] = system: EC9706; assay: Induction of apoptosis in human EC9706 cells assessed as decrease in Bcl2 protein expression after 48 hrs by Western blot analysis; assay type: functional, cell-based
[2] = system: ECa-109 cell line; assay: Effect on Prxs-4 protein expression in human EC109 cells at 2 to 8 uM after 48 hrs by Western blot analysis; assay type: functional, cell-based
[3] = system: EC9706; assay: Induction of apoptosis in human EC9706 cells assessed as early apoptotic cells at 4 uM after 48 hrs by Annexin V-FITC/propidium iodide staining based flow cytometry (reference value: 0.68 to 1.58%); assay type: functional
[4] = system: ECa-109 cell line; assay: Induction of apoptosis in human EC109 cells assessed as late apoptotic cells at 8 uM after 48 hrs by Annexin V-FITC/propidium iodide staining based flow cytometry (reference value: 0.2 to 1.74%); assay type: functional
[5] = system: ECa-109 cell line; assay: Induction of apoptosis in human EC109 cells assessed as late apoptotic cells at 8 uM after 48 hrs in presence of caspase inhibitor Z-VAD-FMK by Annexin V-FITC/propidium iodide staining based flow cytometry (reference value: 0.01%); assay type: functional
[6] = system: EC9706; assay: Antiproliferative activity against human EC9706 cells after 72 hrs by MTT assay; assay type: functional, cell-based; details: EC9706, 72 h
[7] = system: ECa-109 cell line; assay: Induction of ROS generation in human EC109 cells at 2 to 4 uM after 24 hrs in presence of anti-oxidant NAC by DCFH-DA staining based flow cytometry; assay type: functional, cell-based
[8] = system: ECa-109 cell line; assay: Upregulation of p27 protein expression in human EC109 cells at 4 uM after 24 to 48 hrs by Western blot analysis relative to control; assay type: functional
[9] = system: EC9706; assay: Antiproliferative activity against human EC9706 cells after 24 hrs by MTT assay; assay type: functional, cell-based; details: EC9706, 24 h
[10] = system: EC9706; assay: Induction of ROS generation in human EC9706 cells at 2 to 4 uM after 24 hrs in presence of anti-oxidant NAC by DCFH-DA staining based flow cytometry; assay type: functional, cell-based
[11] = system: EC9706; assay: Induction of ROS generation in human EC9706 cells at 8 uM after 24 hrs by DCFH-DA staining based flow cytometry relative to control; assay type: functional
[12] = system: EC9706; assay: Induction of apoptosis in human EC9706 cells assessed as increase in tBid protein expression at 2 to 8 uM after 48 hrs by Western blot analysis; assay type: functional, cell-based
[13] = system: ECa-109 cell line; assay: Induction of apoptosis in human EC109 cells assessed as late apoptotic cells at 4 uM after 48 hrs in presence of caspase inhibitor Z-VAD-FMK by Annexin V-FITC/propidium iodide staining based flow cytometry (reference value: 0.01%); assay type: functional
[14] = system: ECa-109 cell line; assay: Antiproliferative activity against human EC109 cells after 72 hrs by MTT assay; assay type: functional, cell-based; details: ECa-109, 72 h
[15] = system: EC9706; assay: Anticlonogenic activity against human EC9706 cells after 7 days by crystal violet staining based assay; assay type: functional, cell-based
[16] = system: ECa-109 cell line; assay: Induction of apoptosis in human EC109 cells assessed as necrotic cells at 2 uM after 48 hrs by Annexin V-FITC/propidium iodide staining based flow cytometry (reference value: 0.74 to 1.18%); assay type: functional
[17] = system: EC9706; assay: Induction of apoptosis in human EC9706 cells at 2 to 4 uM after 48 hrs in presence of anti-oxidant NAC by Annexin V-FITC/propidium iodide staining based flow cytometry; assay type: functional, cell-based
[18] = system: EC9706; assay: Effect on Prxs-5 protein expression in human EC9706 cells at 2 to 8 uM after 48 hrs by Western blot analysis; assay type: functional, cell-based
[19] = system: EC9706; assay: Cell cycle arrest in human EC9706 cells assessed as increase in G0/G1 phase population at 2 uM after 24 hrs by propidium iodide staining based flow cytometry relative to control; assay type: functional
[20] = system: ECa-109 cell line; assay: Induction of morphological changes in human EC109 cells assessed as chromatin condensation after 48 hrs by Hoechst 33342 staining based fluorescence microscopic method; assay type: functional, cell-based
[21] = system: ECa-109 cell line; assay: Induction of apoptosis in human EC109 cells assessed as necrotic cells at 8 uM after 48 hrs in presence of caspase inhibitor Z-VAD-FMK by Annexin V-FITC/propidium iodide staining based flow cytometry (reference value: 2.37%); assay type: functional
[22] = system: Mus musculus; assay: Acute toxicity in C57BL/6 mouse assessed as histopathological changes in liver at 2 g/kg, ig measured for 2 weeks by hematoxylin and eosin staining based microscopic method; assay type: organism-based; details: in vivo, po, 2000 mg/kg, 336 h
[23] = system: ECa-109 cell line; assay: Induction of apoptosis in human EC109 cells assessed as necrotic cells at 4 uM after 48 hrs by Annexin V-FITC/propidium iodide staining based flow cytometry (reference value: 0.74 to 1.18%); assay type: functional
[24] = Selectivity index, ratio of IC50 for antiproliferative activity against human GES-1 cells after 72 hrs to IC50 for antiproliferative activity against human MGC803 cells after 72 hrs; assay type: toxicity, cell-based; details: GES-1 cells versus MGC803 cells, read-out: Ratio IC50
[25] = system: ECa-109 cell line; assay: Induction of apoptosis in human EC109 cells assessed as increase in cleaved caspase-9 protein expression after 48 hrs by Western blot analysis; assay type: functional, cell-based
[26] = system: EC9706; assay: Cell cycle arrest in human EC9706 cells assessed as increase in G0/G1 phase population at 4 uM after 24 hrs by propidium iodide staining based flow cytometry relative to control; assay type: functional
[27] = system: EC9706; assay: Induction of apoptosis in human EC9706 cells assessed as early apoptotic cells at 4 uM after 48 hrs in presence of caspase inhibitor Z-VAD-FMK by Annexin V-FITC/propidium iodide staining based flow cytometry (reference value: 0.33%); assay type: functional
[28] = system: Mus musculus; assay: Acute toxicity in C57BL/6 mouse assessed as mortality at 2 g/kg, ig measured for 2 weeks; assay type: organism-based; details: in vivo, po, 2000 mg/kg, 336 h
[29] = system: ECa-109 cell line; assay: Induction of apoptosis in human EC109 cells assessed as live cells at 4 uM after 48 hrs by Annexin V-FITC/propidium iodide staining based flow cytometry (reference value: 95.2 to 99%); assay type: functional
[30] = system: EC9706; assay: Cell cycle arrest in human EC9706 cells assessed as increase in S phase population at 2 uM after 24 hrs by propidium iodide staining based flow cytometry relative to control; assay type: functional
[31] = system: ECa-109 cell line; assay: Antiproliferative activity against human EC109 cells after 48 hrs by MTT assay; assay type: functional, cell-based; details: ECa-109, 48 h
[32] = system: ECa-109 cell line; assay: Cell cycle arrest in human EC109 cells assessed as accumulation at G0/G1 phase after 24 hrs by propidium iodide staining based flow cytometry; assay type: functional
[33] = system: PC-3; assay: Antiproliferative activity against human PC3 cells after 72 hrs by MTT assay; assay type: functional, cell-based; details: PC-3, 72 h
[34] = system: Mus musculus; assay: Acute toxicity in C57BL/6 mouse assessed as histopathological changes in lung at 2 g/kg, ig measured for 2 weeks by hematoxylin and eosin staining based microscopic method; assay type: organism-based; details: in vivo, po, 2000 mg/kg, 336 h
[35] = system: Mus musculus; assay: Acute toxicity in C57BL/6 mouse assessed as histopathological changes in kidney at 2 g/kg, ig measured for 2 weeks by hematoxylin and eosin staining based microscopic method; assay type: organism-based; details: in vivo, po, 2000 mg/kg, 336 h
[36] = system: ECa-109 cell line; assay: Effect on Prxs-5 protein expression in human EC109 cells at 2 to 8 uM after 48 hrs by Western blot analysis; assay type: functional, cell-based
[37] = system: ECa-109 cell line; assay: Induction of apoptosis in human EC109 cells assessed as live cells at 8 uM after 48 hrs by Annexin V-FITC/propidium iodide staining based flow cytometry (reference value: 95.2 to 99%); assay type: functional
[38] = system: EC9706; assay: Induction of apoptosis in human EC9706 cells assessed as increase in p53 protein expression after 48 hrs by Western blot analysis; assay type: functional, cell-based

With `COc1ccc(/C=N/NC(=O)c2cccc(S(=O)(=O)N3CCOCC3)c2)c(O)c1` the Activity [1] was “Dose-dependent effect”, the Activity [2] was “Active” and the Activity [3] was 10.8 - 29.9%. For the same compound, the Activity [4] was 42.4 - 43%, the Activity [5] was 21.2% and the IC50 [6] was 1.09 µM. The Activity [7] was “inactive”, the “fold change (FC)” value [8] was 1.4 and the IC50 [9] was > 20 µM. For the same compound, the Activity [10] was “inactive”, the “fold change (FC)” value [11] was 1.95 and the Activity [12] was “Active”. For the same compound, the Activity [13] was 21.1%, the IC50 [14] was 2.79 µM and the Activity [15] was “Active”. For the same compound, the Activity [16] was 2.64%, the Activity [17] was “inactive” and the Activity [18] was “Active”. For the same compound, the “fold change (FC)” value [19] was 1.07, the Activity [20] was “Dose-dependent effect” and the Activity [21] was 17.6%. For the same compound, the Activity [22] was “Non-Toxic”, the Activity [23] was 4.45 - 11.3% and the selectivity ratio at 72 h [24] was 7.2. The Activity [25] was “Dose-dependent effect”, the “fold change (FC)” value [26] was 1.22 and the Activity [27] was 13.3%. For the same compound, the Activity [28] was “Non-Toxic”, the Activity [29] was 27.2 - 63.6% and the “fold change (FC)” value [30] was 1.54. For the same compound, the IC50 [31] was 11.3 µM, the Activity [32] was “Dose-dependent effect” and the IC50 [33] was 5.8 µM. For the same compound, the Activity [34] was “Non-Toxic”, the Activity [35] was “Non-Toxic” and the Activity [36] was “Active”. For the same compound, the Activity [37] was 25.2 - 26.7% and the Activity [38] was “Dose-dependent effect”.
